From PubChem BioAssay AID2305 (GlaxoSmithKline (GSK), 2010) come the findings set out here.

The test system of the experiment is P. falciparum 3D7 growth, pLDH absorbance. In words: P. falciparum 3D7 growth inhibition, dose response, strain 3D7 (AID 2305).

In turn, `Cc1ccccc1C1CCN(C2CCC(NC(=O)/C=C/c3ccc(C#N)cc3)CC2)CC1` (configuration not stated) displayed an IC50 of 1170 nM. `CCCCCCN1CCC(NCc2ccc(OCCN3CCCC3)cc2)CC1` registered an IC50 of 720 nM.

On to `Clc1ccc2c(NCc3ccccn3)ccnc2c1`, for which the IC50 was determined as 660 nM. The figure for `CC1CN(CC(O)Cn2c3ccc(Br)cc3c3cc(Br)ccc32)CC(C)O1` (configuration not stated) is 780 nM; for `Cc1nc(-c2nc(N3CCC(C(N)=O)CC3)ncc2-c2ccsc2)sc1C` it is 900 nM; for `Cc1ccc(CNC(=O)[C@H](Cc2ccccc2)Nc2cc(C)nc(NCCc3ccc(F)cc3)n2)cc1` it is 980 nM. For `CCN1CCN(CCNc2c3ccccc3nc3ccccc23)CC1` the value was 1020 nM; for `NC(N)=NC(=O)Nc1cc(Cl)c(F)c(Cl)c1`, 640 nM. For `COc1cc(Cc2cnc(N)nc2N)ccc1OCc1ccc(-c2csnn2)cc1` the value was 630 nM; for `c1cncc(CCNCc2ccc(-c3cccc(-c4nc5ccccc5[nH]4)c3)cc2)c1`, 160 nM; for `CN1CCN(CC2(Nc3nccc(NCc4ccc(Cl)cc4Cl)n3)CCCCC2)CC1`, 590 nM. As to `CN(C)CCNC(=O)[C@H](Cc1ccccc1)NC(=O)c1ccc(O)c(-c2ccc(Cl)c(Cl)c2)c1`, the half-inhibitory concentration (IC50) is 710 nM. For `CCc1ccc(CN2CCC(CNC(=O)c3cc(-c4ccccc4F)cs3)C2)cc1` (configuration not stated) the value was 900 nM. The figure for `COc1cc(NC(=O)c2nn(CCCN3CCC4(CC3)C(=O)NCN4c3ccccc3)cc2-c2ccc(Cl)c(Cl)c2)cc(OC)c1OC` is 750 nM; for `Cc1oc(-c2cccc(Oc3ccccc3)c2)nc1CN(Cc1cnn(C)c1)C(C)C` it is 1090 nM.

Regarding `COc1ccc2nc3cc(Cl)ccc3c(N)c2c1`, the IC50 is 170 nM. For `Cc1c(C(=O)N2CCCC(C(F)(F)F)C2)sc2cccc(F)c12` (configuration not stated) the value was 600 nM; for `Oc1ccc(CCNc2nc(N/N=C/C=C/c3ccc(Cl)cc3)nc(N3CCNCC3)n2)cc1`, 780 nM. For `CCCCCCc1cnc2nc(N)nc(N)c2c1C` the value was 190 nM; for `Cc1ccc(Nc2nccc(NCC(O)c3cccc(C)c3)n2)cc1` (configuration not stated), 1020 nM; for `COc1ccc2c(NN=Cc3cccc(Cl)c3)cc(C)nc2c1`, 730 nM. The figure for `C=CC(=O)Nc1ccc(Cl)cc1C(O)c1ccccc1` (configuration not stated) is 180 nM; for `O=C(Nc1ccc(Cl)c(Cl)c1)Nc1ccc2nccc(N3CCNCC3)c2c1` it is 260 nM; for `CCN(CC)CCON=Cc1cc(C)c2[nH]c3ccc(OCc4ccccc4)cc3c2c1C` it is 970 nM. `Cc1cc(CNCC(CCNc2cc(=O)c3ccccc3[nH]2)NCc2cc(Br)cc(Br)c2)oc1C` (configuration not stated) showed a concentration for half-maximal inhibition (IC50) of 890 nM. For `Cc1[nH]c(C)c(-c2ccc(-c3ccc(C#N)cc3)nc2)c(=O)c1Br` the value was 980 nM; for `CCC(C)(C)NC(=O)C(c1cccc(OC)c1)N(C(=O)CNC(=O)c1cccs1)c1ccc2c(c1)OCCO2` (configuration not stated), 830 nM; for `CC(C)(CNC(=O)[C@@H]1CCCN(CCOc2ccc(F)c(F)c2)C1)c1nc(-c2ccc(Cl)c(O)c2)c(-c2ccncc2)[nH]1`, 720 nM. With `CC(C)Cn1c(Sc2ccc(C#N)c([N+](=O)[O-])c2)nnc1-c1cccc(Cl)c1`, the IC50 was 300 nM.

Regarding `CCOc1ccccc1N1CCN(CCCNC(=O)/C(=C/C=C/c2cc3cc(Cl)c(Cl)cc3[nH]2)OC)CC1`, the IC50 is 850 nM. For `O=C(C=Cc1ccc(Cl)c(Cl)c1)NCCCCCN1CCCC(CCCNS(=O)(=O)c2ccc(Br)cc2)C1` (configuration not stated) the value was 960 nM; for `O=C(C=Cc1ccc(Cl)c(Cl)c1)NCCCCCN1CCC(CCNC(=O)c2ccc3c(c2)OCO3)CC1`, 690 nM. Consider `Cc1nc(-c2cccc(NCc3ccccc3)c2)[nH]c1C`, for which the 50% inhibitory concentration (IC50) came out at 860 nM.

In turn, `CC1(C)CCC(C)(C)c2c1ccc(C1CCN(CCCCNC(=O)c3ccc(-c4ccc(Cl)cc4)cc3)CC1)c2O` came in with a 50% inhibitory concentration (IC50) of 480 nM. For `O=C(Nc1ccc(-c2ccc(-c3nc4ccccc4[nH]3)s2)cc1)Nc1ccsc1` the value was 280 nM; for `CCN(CCCN1CCCCC1)c1cc(C)nc(Nc2ccc(C(C)C)cc2)n1`, 540 nM; for `O=C(Nc1cccc(F)c1)c1ccc(C(=O)NC2CCN(CC3CCCCC3)C2)cc1` (configuration not stated), 930 nM. The figure for `CC(C)N(CCOc1ccc2c(c1)N(C(=O)Nc1cc(Br)cc(C(F)(F)F)c1)CC2)C(C)C` is 110 nM; for `Cc1cc(N[C@@H](CC(C)C)C(=O)NCCc2ccccc2)nc(NCc2ccccc2C)n1` it is 910 nM.

Molecule `COc1ccc2nccc(NN=Cc3ccc(F)cc3)c2c1` gave an IC50 of 720 nM. For `CS(=O)(=O)c1ccc(-c2cnc(N)c(-c3cccc(CO)c3)c2)cc1` the value was 940 nM. For `COc1cc2nc(N3CCC(CNC(=O)c4ccc(-c5ccc(-c6noc(C)n6)cc5)cc4)CC3)nc(N)c2cc1OC` the value was 140 nM.

Molecule `O=C(CCCCCc1ccccc1)NC1CCC(CN2CCC(c3c[nH]c4ccccc34)CC2)CC1` (configuration not stated) displayed an IC50 of 1140 nM. `Cc1cc(OCCCN2CCCCC2)ccc1NC(=O)COc1ccc(Cl)cc1C(=O)c1cc(C#N)cc(C(F)(F)F)c1` came in with a concentration for half-maximal inhibition (IC50) of 1030 nM. For `CC(=O)Nc1ccc(C(=O)N2CCN(c3ccnc4cc(Cl)ccc34)CC2)cc1` the value was 910 nM; for `COc1ccc2nccc(NC(=O)C3CCC(NCc4ccc5c(c4)NC(=O)CS5)CC3)c2c1` (configuration not stated), 590 nM; for `CCOc1ccc(CNCCCCCCNCc2ccc(OCC)c3ccccc23)c2ccccc12`, 450 nM. For `COc1cccc(NC(=O)N2CCOC(CCN3CCC4(CCc5ccccc54)CC3)(c3ccc(Cl)c(Cl)c3)C2)c1` (configuration not stated) the value was 1010 nM.

In turn, `NC(=O)c1ccc(NCC(=O)Nc2cccc(-c3cccc(-c4nc5ccc(C(F)(F)F)cc5[nH]4)c3)c2)cc1` displayed an IC50 of 270 nM. This IC50 is about 3.7-fold lower than that of the molecule before. The figure for `O=C(Nc1cccc(CN2CCN(Cc3ccc(O)cc3)CC2)c1)c1cccc(C(F)(F)F)c1` is 1210 nM.

Consider `N=C(N)c1ccc(C=CC(=O)NCC(O)CNC(=O)C=Cc2ccc(C(=N)N)cc2)cc1` (configuration not stated), for which the IC50 worked out at 30 nM. For `CC(C)(C)c1ccc2nc(-c3ccc(C(=O)NCCCc4ccccc4)cc3)[nH]c2c1` the value was 800 nM; for `O=C(C=Cc1ccc(Cl)c(Cl)c1)NCCCCCN1CCC(CCCNS(=O)(=O)c2cccc(C(F)(F)F)c2)CC1`, 480 nM; for `CCNc1cc(C)nc(Nc2ccc(NC(=O)c3ccc(OC)c(OC)c3)cc2)n1`, 1070 nM. The figure for `Cc1cc(NC(=O)c2ccco2)ccc1OC1CCN(Cc2ccc(F)cc2)C1` (configuration not stated) is 640 nM.

The molecule `c1ccc(Oc2ccc(Nc3ccnc(Nc4cccc(CNCCCN5CCOCC5)c4)n3)cc2)cc1` yielded a 50% inhibitory concentration (IC50) of 1040 nM. The figure for `COc1cccc(Nc2nnc(SCC(=O)NNC(=O)c3ccccn3)s2)c1` is 380 nM; for `CC(C)N1CCN(C(CN2CCN(CCCOc3ccccc3-c3ccccc3)CC2)c2ccc(F)cc2)CC1` (configuration not stated) it is 790 nM; for `N#Cc1cccc(Nc2cc(C(F)(F)F)nc(Nc3ccccc3)n2)c1` it is 1440 nM. The figure for `C[C@@H]1CN(c2cnn(C/C=C/c3ccc(NC(=O)c4ccc(Cl)cc4)cc3)c(=O)c2Cl)C[C@H](C)N1` is 850 nM.

`O=C(Nc1cccc(C(F)(F)F)c1)Nc1nc2ccc([N+](=O)[O-])cc2s1` showed an IC50 of 690 nM. The figure for `CC(C)N1CCC(N(Cc2ccc(-c3ccc(C(F)(F)F)cc3)cc2)C(=O)Cn2c(SCc3cccc(F)c3F)cc(=O)c3c2CCC3)CC1` is 1160 nM; for `O=C1CSc2ccc(CNC3CCN(CCc4c(Cl)cnc5ccc(F)cc45)CC3)nc2N1` it is 430 nM; for `Cc1ccccc1C1CCN(C2CCC(NC(=O)/C=C/c3ccccc3C(F)(F)F)CC2)CC1` (configuration not stated) it is 1410 nM.

Regarding `Cc1cc(-c2ccc(NC(=O)N3CCc4cc(Br)c(N5CCN(C)CC5)cc43)cc2)cc(C)n1`, the IC50 amounted to 1010 nM.

Molecule `CCC(c1ccccc1)c1nn2c(-c3cccs3)nnc2s1` (configuration not stated) displayed an IC50 of 170 nM. Compared with the last molecule, the IC50 is about 5.9-fold lower. `CC(C)c1ccc(C2CCN(CCCCNC(=O)c3ccc(NC(=O)c4ccc(C(F)(F)F)cc4)cc3)CC2)c(O)c1` returned an IC50 of 580 nM.

Regarding `CC(=O)C1(c2ccccc2)CCN(CCC2(c3ccc(Cl)c(Cl)c3)CN(C(=O)Nc3cccc(C(F)(F)F)c3)CCO2)CC1` (configuration not stated), the IC50 came to 1050 nM.

Take `CN(C)CCOc1ccc(-c2cc(-c3ccc(Cl)c(O)c3)c(-c3ccncc3)[nH]2)cc1`: the IC50 is 580 nM.

Molecule `Cc1c(C(C)(C)C)ccc2nc(N)nc(N)c12` gave an IC50 of 10 nM. This IC50 is about 58-fold lower than that of the molecule before.

Molecule `O=C(/C=C/c1ccc(Cl)c(Cl)c1)NCCCCCN1CCC(c2c[nH]c3c(-c4ccccc4)cccc23)CC1` displayed an IC50 of 250 nM.

In turn, `Cc1cnccc1/C=C/c1cccc(OCCCN2CCc3ccc(S(C)(=O)=O)cc3CC2)c1` displayed a half-inhibitory concentration (IC50) of 610 nM. For `Cc1ccc(Cn2nc(N3CCNCC3)ccc2=O)cc1NC(=O)Nc1ccc(-c2ccccc2)cc1` the value was 840 nM; for `CN(C)Cc1ccc(-c2ccc3ccnc(N)c3c2)cc1`, 380 nM; for `Cc1cccc(OC(C)C(=O)Nc2cc(C(F)(F)F)ccc2N2CCOCC2)c1` (configuration not stated), 240 nM. In the case of `CCCCNCc1ccc(-c2nc(CN(CCCN3CCN(C)CC3)C(=O)Nc3cccc(Cl)c3)cs2)cc1`, the IC50 was determined as 970 nM. Compared with the last molecule, the IC50 is about 4-fold higher.

The molecule `O=C(CCc1cnc[nH]1)Nc1cccc(-c2ccc(-c3nc4ccccc4[nH]3)s2)c1` yielded an IC50 of 760 nM. The figure for `CC(C)(C)c1cc(C(=O)Nc2cccnc2)cc(C(=O)Nc2cccnc2)c1` is 760 nM; for `CCNc1nc(OCC(F)(F)F)nc(N(c2ccccc2)c2ccccc2)n1` it is 470 nM; for `CCCc1cc(C(=O)N[C@@H](Cc2ccccc2)[C@H](O)CNC2CCOCC2)c(F)c(N2CCCCS2(=O)=O)c1` it is 170 nM. For `O=C(Nc1ccc(Cl)cc1)Nc1ccc2c(c1)N1CCN=C1S2` the value was 590 nM; for `CS(=O)(=O)Nc1ccc(-c2cnc3[nH]cc(-c4ccc(C(=O)O)cc4)c3c2)cc1`, 800 nM; for `CCCCN(CCCC)C(=NCCCCCCN=C(/N=C(/N)Nc1ccc(Cl)cc1)N(CCCC)CCCC)/N=C(/N)Nc1ccc(Cl)cc1`, 790 nM. The figure for `C=CCc1cc(Cc2cnc(N)nc2N)cc(CCC)c1O` is 990 nM; for `Cc1ccc(/C=C/C(=O)N2CCC(CCN3CCC(c4c[nH]c5ccccc45)CC3)CC2)cc1C` it is 930 nM. Molecule `C=CCOC(=O)N1CCC(CNCc2cccc(-c3ccc(-c4nc5c(C)cccc5[nH]4)s3)c2)C1` (configuration not stated) displayed an IC50 of 250 nM. The figure for `Cc1cc(C(F)(F)F)cc(-n2ncc(-c3ccc(C(=O)NCCNCc4ccccc4)cc3)c2N)n1` is 1070 nM.
